Legend:
Type in all cases: in vivo
[1] = system: redroot pigweed (Amaranthus retroflexus, AMARE); experiment: Pre-emerge test, greenhouse herbicide activity screening; details: pre-emerge, rated 14 days after application, 0 = no damage, 100 = complete death
In short: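 Rating: 0–100 visual injury, 14 DAA. Application: acetone, 187 l/ha, 15–1000 g ai/ha, flat-fan track sprayer with nozzle 40–45 cm above soil or canopy. Post-emerge runs used 0.25% v/v surfactant on 2–3 leaf plants.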

[2] = system: sicklepod (Cassia obtusifolia, CASOB); experiment: Post-emerge test, greenhouse herbicide activity screening; details: phytotoxicity rating 0-100 (0 no damage, 100 complete death), 14 days after application
In short: (§1)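 Compounds in acetone were track-sprayed at 15–1000 g ai/ha: pre-emergence onto soil sown the previous day, then top-watered to incorporate and later bottom-watered; post-emergence onto 2–3 leaf plants with 0.25% v/v surfactant, bottom-watered only. Ratings on a 0–100 phytotoxicity scale were taken at day 14.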

[3] = system: velvetleaf (Abutilon theophrasti, ABUTH); experiment: as above; details: phytotoxicity rating 0-100 (0 no damage, 100 complete death), 14 days after application
In short: as §1

[4] = system: large crabgrass (Digitaria sanguinalis, DIGSA); experiment: as above; details: phytotoxicity rating 0-100 (0 no damage, 100 complete death), 14 days after application
In short: as §1

[5] = system: lambsquarters (Chenopodium album, CHEAL); experiment: as above; details: phytotoxicity rating 0-100 (0 no damage, 100 complete death), 14 days after application
In short: as §1

[6] = system: ivyleaf morningglory (Ipomoea hederacea, IPOHE); experiment: as above; details: phytotoxicity rating 0-100 (0 no damage, 100 complete death), 14 days after application
In short: as §1

[7] = system: green foxtail (Setaria viridis, SETVI); experiment: as above; details: phytotoxicity rating 0-100 (0 no damage, 100 complete death), 14 days after application
In short: as §1

[8] = system: barnyardgrass (Echinochloa crus-galli, ECHCG); experiment: as above; details: phytotoxicity rating 0-100 (0 no damage, 100 complete death), 14 days after application
In short: as §1

[9] = system: common ragweed (Ambrosia artemisizfolia L., AMBEL); experiment: as above; details: phytotoxicity rating 0-100 (0 no damage, 100 complete death), 14 days after application
In short: as §1

[10] = system: redroot pigweed (Amaranthus retroflexus, AMARE); experiment: as above; details: phytotoxicity rating 0-100 (0 no damage, 100 complete death), 14 days after application
In short: as §1

[11] = system: sicklepod (Cassia obtusifolia, CASOB); experiment: Pre-emerge test, greenhouse herbicide activity screening; details: pre-emerge, rated 14 days after application, 0 = no damage, 100 = complete death
In short: (§2)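 Compounds in acetone were track-sprayed at 15-1000 g ai/ha (187 l/ha) on sandy loam pots: pre-emerge one day after seeding, post-emerge at 2-3 leaf stage with 0.25% v/v non-ionic surfactant. Phytotoxicity was rated 14 days later on a 0 (no damage) to 100 (complete death) scale.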

[12] = system: velvetleaf (Abutilon theophrasti, ABUTH); experiment: as above; details: pre-emerge, rated 14 days after application, 0 = no damage, 100 = complete death
In short: as §2

[13] = system: large crabgrass (Digitaria sanguinalis, DIGSA); experiment: as above; details: pre-emerge, rated 14 days after application, 0 = no damage, 100 = complete death
In short: as §2

[14] = system: lambsquarters (Chenopodium album, CHEAL); experiment: as above; details: pre-emerge, rated 14 days after application, 0 = no damage, 100 = complete death
In short: as §2

[15] = system: ivyleaf morningglory (Ipomoea hederacea, IPOHE); experiment: as above; details: pre-emerge, rated 14 days after application, 0 = no damage, 100 = complete death
In short: as §2

[16] = system: green foxtail (Setaria viridis, SETVI); experiment: as above; details: pre-emerge, rated 14 days after application, 0 = no damage, 100 = complete death
In short: as §2

[17] = system: barnyardgrass (Echinochloa crus-galli, ECHCG); experiment: as above; details: pre-emerge, rated 14 days after application, 0 = no damage, 100 = complete death
In short: as §2

[18] = system: common ragweed (Ambrosia artemisizfolia L., AMBEL); experiment: as above; details: pre-emerge, rated 14 days after application, 0 = no damage, 100 = complete death
In short: as §2

[19] = system: johnsongrass (Sorghum halepense, SORHA); experiment: as above; details: pre-emerge, rated 14 days after application, 0 = no damage, 100 = complete death
In short: as §2

[20] = system: field corn (Zea mays L., var. Dekalb 535, CORN); experiment: Post-emerge test, crop safety; details: phytotoxicity rating 0-100 (0 no damage, 100 complete death), 14 days after application
In short: as §2

[21] = system: upland rice (Oryza sp., var. Tebonnet, RICE); experiment: Post-emerge test, crop safety; details: phytotoxicity rating 0-100 (0 no damage, 100 complete death), 14 days after application
In short: as §2

[22] = system: field corn (Zea mays L., var. Dekalb 535, CORN); experiment: Pre-emerge test, crop safety; details: pre-emerge, rated 14 days after application, 0 = no damage, 100 = complete death
In short: (§3)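 Compounds in acetone were track-sprayed at 187 l/ha, 15–1000 g ai/ha, onto sandy loam pots. Pre-emerge seeds were sown one day before spraying, with surface watering afterwards. Post-emerge plants were at the 2–3 leaf stage and sprayed with 0.25% v/v non-ionic surfactant. Injury was rated 0–100 at 14 days.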

[23] = system: upland rice (Oryza sp., var. Tebonnet, RICE); experiment: Pre-emerge test, crop safety; details: pre-emerge, rated 14 days after application, 0 = no damage, 100 = complete death
In short: as §3

CCOc1c(Cl)cc(F)c(-n2c(=O)cc(C(F)(F)F)n(C)c2=O)c1N [Compound 1-61]
50: Post-emerge Herbicidal Activity AMARE ([10]; 63 g ai/ha) | Pre-emerge crop damage RICE (phytotoxicity rating, scale 0-100) ([23]; 63 g ai/ha)
30: Post-emerge Herbicidal Activity DIGSA ([4]; 250 g ai/ha) | Post-emerge Herbicidal Activity CHEAL ([5]; 63 g ai/ha) | Post-emerge Herbicidal Activity SETVI ([7]; 250 g ai/ha) | Pre-emerge Herbicidal Activity CASOB (phytotoxicity rating, scale 0-100) ([11]; 63 g ai/ha) | Post-emerge Herbicidal Activity CORN (crop damage) ([20]; 250 g ai/ha)
10: Post-emerge Herbicidal Activity DIGSA ([4]; 63 g ai/ha) | Post-emerge Herbicidal Activity SETVI ([7]; 63 g ai/ha) | Post-emerge Herbicidal Activity ECHCG ([8]; 250 g ai/ha) | Post-emerge Herbicidal Activity CORN (crop damage) ([20]; 63 g ai/ha) | Post-emerge Herbicidal Activity RICE (crop damage) ([21]; 63 g ai/ha)
60: Post-emerge Herbicidal Activity CASOB ([2]; 63 g ai/ha) | Pre-emerge Herbicidal Activity IPOHE (phytotoxicity rating, scale 0-100) ([15]; 63 g ai/ha) | Pre-emerge Herbicidal Activity AMBEL (phytotoxicity rating, scale 0-100) ([18]; 63 g ai/ha) | Pre-emerge crop damage CORN (phytotoxicity rating, scale 0-100) ([22]; 63 g ai/ha)
70: Post-emerge Herbicidal Activity CASOB ([2]; 250 g ai/ha) | Post-emerge Herbicidal Activity ABUTH ([3]; 63 g ai/ha) | Post-emerge Herbicidal Activity CHEAL ([5]; 250 g ai/ha) | Post-emerge Herbicidal Activity AMBEL ([9]; 63 g ai/ha) | Post-emerge Herbicidal Activity AMARE ([10]; 250 g ai/ha) | Pre-emerge Herbicidal Activity SORHA (phytotoxicity rating, scale 0-100) ([19]; 63 g ai/ha)
75: Pre-emerge Herbicidal Activity ECHCG (phytotoxicity rating, scale 0-100) ([17]; 63 g ai/ha)
80: Pre-emerge Herbicidal Activity CASOB (phytotoxicity rating, scale 0-100) ([11]; 250 g ai/ha)
85: Post-emerge Herbicidal Activity AMBEL ([9]; 250 g ai/ha)
100: Pre-emerge Herbicidal Activity AMARE (phytotoxicity rating, scale 0-100) ([1]; 250 g ai/ha) | Post-emerge Herbicidal Activity ABUTH ([3]; 250 g ai/ha) | Post-emerge Herbicidal Activity IPOHE ([6]; 63 g ai/ha) | Post-emerge Herbicidal Activity IPOHE ([6]; 250 g ai/ha) | Pre-emerge Herbicidal Activity ABUTH (phytotoxicity rating, scale 0-100) ([12]; 63 g ai/ha) | Pre-emerge Herbicidal Activity ABUTH (phytotoxicity rating, scale 0-100) ([12]; 250 g ai/ha) | Pre-emerge Herbicidal Activity CHEAL (phytotoxicity rating, scale 0-100) ([14]; 63 g ai/ha) | Pre-emerge Herbicidal Activity CHEAL (phytotoxicity rating, scale 0-100) ([14]; 250 g ai/ha) | Pre-emerge Herbicidal Activity SETVI (phytotoxicity rating, scale 0-100) ([16]; 250 g ai/ha) | Pre-emerge Herbicidal Activity AMBEL (phytotoxicity rating, scale 0-100) ([18]; 250 g ai/ha)
0: Post-emerge Herbicidal Activity ECHCG ([8]; 63 g ai/ha)
95: Pre-emerge Herbicidal Activity AMARE (phytotoxicity rating, scale 0-100) ([1]; 63 g ai/ha) | Pre-emerge Herbicidal Activity SETVI (phytotoxicity rating, scale 0-100) ([16]; 63 g ai/ha) | Pre-emerge crop damage CORN (phytotoxicity rating, scale 0-100) ([22]; 250 g ai/ha) | Pre-emerge crop damage RICE (phytotoxicity rating, scale 0-100) ([23]; 250 g ai/ha)
90: Pre-emerge Herbicidal Activity IPOHE (phytotoxicity rating, scale 0-100) ([15]; 250 g ai/ha)
35: Post-emerge Herbicidal Activity RICE (crop damage) ([21]; 250 g ai/ha)
99: Pre-emerge Herbicidal Activity DIGSA (phytotoxicity rating, scale 0-100) ([13]; 250 g ai/ha) | Pre-emerge Herbicidal Activity ECHCG (phytotoxicity rating, scale 0-100) ([17]; 250 g ai/ha) | Pre-emerge Herbicidal Activity SORHA (phytotoxicity rating, scale 0-100) ([19]; 250 g ai/ha)
40: Pre-emerge Herbicidal Activity DIGSA (phytotoxicity rating, scale 0-100) ([13]; 63 g ai/ha)
